One series has as its system wild-type HIV-1 (IIIB). The series is described as follows: microbe, parasite or virus in culture. The note with it: for EC50: Human immunodeficiency virus 1, MT4, MT-4 cells, HIV-1 IIIB, MTT method; for RF IIIB: ratio EC50(resistant strain)/EC50(wild-type strain); for SI IIIB: selectivity index, ratio CC50/EC50, IIIB. Type of series: cell-based. The protocol:
(§1) All data were calculated using the median optical density (OD) value of three wells.
A general note: Tetrazolium assays rely on reduction of a dye to a coloured formazan, in cell work by metabolically active cells.

Series [1] deals with HIV-1 double-mutant strain RES056 (K103N/Y181C). Put plainly: microbe, parasite or virus in culture. Type of series: cell-based. To be noted: for EC50: Human immunodeficiency virus 1, MT4, read-out: EC50 RES056; for RF RES056: ratio EC50(resistant strain)/EC50(wild-type strain); for SI RES056: selectivity index, ratio CC50/EC50, RES056. The method, then:
as §1

A short description of series [2]: Cytotoxicity in mock-infected MT-4 cells, MTT method. It is filed as cell-based. The note with it: human. The method, then: The 3-(4,5-dimethylthiazol-2-yl)-2,5-diphenyltetrazolium bromide (MTT) method was used to evaluate the antiviral activity and cytotoxicity of the synthesized compounds as previously described. At the beginning of each experiment, stock solutions (10× final concentration) of test compounds were added in 25 μL volumes to two series of triplicate wells for allowing the simultaneous evaluation of their effects on mock- and HIV-infected cells. The serial 5-fold dilutions of the compounds were made in flat-bottomed 96-well microtiter trays directly, including untreated control HIV-1 and mock infected cell samples for each sample using a Biomek 3000 robot (Beckman Instruments, Fullerton, CA, USA). HIV-1 (IIIB) and mutant HIV-1 strains (RES056, F227L/V106A, L100I, K103N, E138K, Y181C, and Y188L) stock (50 μL at 100–300 CCID50) (50% cell culture infectious dose) or culture medium was added to either the infected or mock-infected wells of the microtiter tray. Mock-infected cells were used to evaluate the effect on uninfected cells to assess the cytotoxicity of the test compounds. Exponentially growing MT-4 cells were centrifuged for […] at 1000 rpm (Eppendorf 5424, Hamburg, Germany) and then the supernatant was discarded. The MT-4 cells were resuspended at 6 × 10^5 cells/mL and 50 μL aliquots were transferred to the microtiter tray wells. At 5 days after infection, the viability of mock- and HIV-infected cells was determined spectrophotometrically by means of MTT assay.
The MTT assay is based on the reduction of yellow-colored MTT (Acros Organics, Geel, Belgium) by mitochondrial dehydrogenase of metabolically active cells to form a blue-purple formazan. The absorbances were read in an eight-channel computer-controlled photometer at the wavelengths of 540 and 690 nm. All data were calculated using the median optical density (OD) value of three wells.

For series [3], the system named is HIV-1 Y181C mutant strain. Put plainly: microbe, parasite or virus in culture. Type of series: cell-based. The note with it: for EC50: Human immunodeficiency virus 1, MT4, read-out: EC50 Y181C, MT-4 cells, Y181C, MTT method. The method, then:
as §1

Series [4] has as its system HIV-1 K103N mutant strain. The series is described as follows: microbe, parasite or virus in culture. Type of series: cell-based. The note with it: for EC50: Human immunodeficiency virus 1, MT4, read-out: EC50 K103N, MT-4 cells, K103N, MTT method. The protocol: as §1
In series [5] the test system is HIV-1 E138K mutant strain. Put plainly: microbe, parasite or virus in culture. It is filed as cell-based. The note with it: for EC50: Human immunodeficiency virus 1, MT4, read-out: EC50 E138K. The method, then: as §1
Series [6] deals with HIV-1 F227L + V106A mutant strain. The series is described as follows: microbe, parasite or virus in culture. It is filed as cell-based. To be noted: for EC50: Human immunodeficiency virus 1, MT4, read-out: EC50 F227L + V106A. The protocol:
as §1

Series [7] concerns HIV-1 L100I mutant strain. The series is described as follows: microbe, parasite or virus in culture. Type of series: cell-based. To be noted: for EC50: Human immunodeficiency virus 1, MT4, read-out: EC50 L100I. The protocol:
as §1

In series [8] the test system is HIV-1 Y188L mutant strain. Put plainly: microbe, parasite or virus in culture. Type of series: cell-based. The note with it: for EC50: Human immunodeficiency virus 1, MT4, read-out: EC50 Y188L. The method, then:
as §1

Setting [9] is: mock-infected MT-4 cells, MTT method, read-out: CC50.

Here are results for eleven compounds from article PMC9657321, “Identification of Boronate-Containing Diarylpyrimidine Derivatives as Novel HIV-1 Non-Nucleoside Reverse Transcriptase Inhibitors” (Molecules, 2022).

The structures appear in SMILES notation. Where two headings read alike, the source gives them in different places.

Turning to `Cc1cc(C#N)cc(C)c1Oc1nc(Nc2ccc(B3OC(C)(C)C(C)(C)O3)cc2)nc2ccccc12` [Compound 3g, 3,5-Dimethyl-4-((2-((4-(4,4,5,5-tetramethyl-1,3,2-dioxaborolan-2-yl)phenyl)amino)quinazolin-4-yl)oxy)benzonitrile], the melting point (usually the temperature, or range, at which the solid turns liquid) is 147 to 149 °C. In the series with wild-type HIV-1 (IIIB), a half-maximal response (EC50) required 6170 ± 1830 nM, the “RF IIIB” value worked out at 1.0 and the “SI IIIB” value is > 41. Also, in series [1], the EC50 (as a rule, the concentration at which the effect is half-maximal) is > 254000 nM and the “RF RES056” value is recorded as > 41.1. The CC50 (usually the concentration that lowers cell viability or growth by half) at 5 days in series [2] is > 254000 nM.
`Cc1cc(C#N)cc(C)c1Oc1nc(Nc2ccc(B3OC(C)(C)C(C)(C)O3)cc2)nc2cccnc12` [Compound 3h, 3,5-Dimethyl-4-((2-((4-(4,4,5,5-tetramethyl-1,3,2-dioxaborolan-2-yl)phenyl)amino)pyrido [3,2-d]pyrimidin-4-yl)oxy)benzonitrile]: the melting point lay within 177 to 179 °C. Moreover, in the series on wild-type HIV-1 (IIIB), the “fold more potent than 3g” value amounted to 55 fold, the EC50 is 112 ± 24 nM, the “RF IIIB” value is 1.0 and the “SI IIIB” value amounted to 232. In addition, in series [1], the EC50 was > 26000 nM, the “RF RES056” value is listed as > 232 and the “SI RES056” value is on record as < 1. The CC50 at 5 days in series [2] was determined as 26000 ± 2330 nM.
`Cc1cc(C#N)cc(C)c1Oc1nc(Nc2ccc(B3OC(C)(C)C(C)(C)O3)cc2)nc2c1CCCC2` [Compound 3i, 3,5-Dimethyl-4-((2-((4-(4,4,5,5-tetramethyl-1,3,2-dioxaborolan-2-yl)phenyl)amino) -5,6,7,8-tetrahydroquinazolin-4-yl)oxy)benzonitrile] returned a melting point of 233 to 235 °C. Moreover, in the series on wild-type HIV-1 (IIIB), the EC50 was 191 ± 88 nM, the “RF IIIB” value stood at 1.0 and the “SI IIIB” value was determined as 145. In [1], the EC50 is > 27700 nM, the “RF RES056” value is > 145 and the “SI RES056” value is on record as < 1. For the same compound, in [2], the midpoint of cytotoxicity, the CC50 at 5 days, lay at 27700 ± 1270 nM.
As to `Cc1ccnc2c1NC(=O)c1cccnc1N2C1CC1` [NVP, nevirapine, reference compound], the EC50 is 151 ± 37 nM in the series with wild-type HIV-1 (IIIB); 5060 ± 922 nM in series [3]; 168 nM in series [5]; 8050 ± 3540 nM in [6]; > 15000 nM in series [1]; 623 ± 277 nM in series [7]. Moreover, in [8], the EC50 worked out at 9080 ± 2410 nM. Also, the “RF IIIB” value in the series with wild-type HIV-1 (IIIB) is reported as 1.0. Besides, the “RF Y181C” value in series [3] (ratio EC50 (resistant viral strain)/EC50 (wild-type viral strain), Y181C) was found to be 33.6. Further, in [4] (ratio EC50 (resistant viral strain)/EC50 (wild-type viral strain), K103N), the “RF K103N” value worked out at 26.1. Further, the “RF E138K” value in series [5] (ratio EC50 (resistant viral strain)/EC50 (wild-type viral strain), E138K) is 1.1. Further, the “RF F227L + V106A” value in series [6] (ratio EC50 (resistant viral strain)/EC50 (wild-type viral strain), F227L + V106A) is listed as 53.5. The “RF RES056” value in series [1] stood at 99.9. In series [7] (ratio EC50 (resistant viral strain)/EC50 (wild-type viral strain), L100I), the “RF L100I” value is reported as 4.1. In addition, in series [8] (ratio EC50 (resistant viral strain)/EC50 (wild-type viral strain), Y188L), the “RF Y188L” value came out at 60.4. The CC50 at 5 days in series [2] (setting [9]) was > 15000 nM.
On to `Cc1cc(C#N)cc(C)c1Oc1nc(Nc2ccc(B3OC(C)(C)C(C)(C)O3)cc2)nc2scnc12` [Compound 3e, 3,5-Dimethyl-4-((5-((4-(4,4,5,5-tetramethyl-1,3,2-dioxaborolan-2-yl)phenyl)amino)thiazolo [5,4-d]pyrimidin-7-yl)oxy)benzonitrile], for which, in the series with wild-type HIV-1 (IIIB), the midpoint of the response, the EC50, lay at 215 ± 91 nM and the “RF IIIB” value came to 1.0. Besides, in series [1], the EC50 was > 26500 nM and the “RF RES056” value was > 123. Also, the midpoint of cytotoxicity in series [2], the CC50 at 5 days, lay at 26500 ± 1780 nM.
The matching figures for `Cc1cc(C#N)cc(C)c1Oc1nc(Nc2ccc(B3OC(C)(C)C(C)(C)O3)cc2)nc2sccc12` [Compound 3b, 3,5-Dimethyl-4-((2-((4-(4,4,5,5-tetramethyl-1,3,2-dioxaborolan-2-yl)phenyl)amino)thieno [2,3-d]pyrimidin-4-yl)oxy)benzonitrile]: 1300 ± 275 nM, 1.0, 174000 ± 34500 nM, 134 and > 254000 nM.
On to `O=C1Nc2ccc(Cl)cc2[C@@](C#CC2CC2)(C(F)(F)F)O1` [EFV, efavirenz, reference compound], for which the EC50 with wild-type HIV-1 (IIIB) turned out to be 3 ± 1 nM; in [3] it was 5 ± 2 nM; in series [4], 71 ± 20 nM; in series [5], 6 ± 2 nM; in series [1], 337 ± 149 nM; in series [7], 32 ± 8 nM. Also, the EC50 in series [8] came to 261 ± 118 nM. Besides, the CC50 at 5 days in [2] (setting [9]) is > 6350 nM.
For `Cc1cc(C#N)cc(C)c1Oc1ccnc(Nc2ccc(B3OC(C)(C)C(C)(C)O3)cc2)n1` [Compound 3f, 3,5-Dimethyl-4-((2-((4-(4,4,5,5-tetramethyl-1,3,2-dioxaborolan-2-yl)phenyl)amino)pyrimidin-4-yl)oxy)benzonitrile], the melting point fell in the range of 202 to 204 °C. In the series on wild-type HIV-1 (IIIB), a half-maximal effect (EC50) was put at 149 ± 49 nM, the “RF IIIB” value amounted to 1.0 and the “SI IIIB” value is listed as 206. Besides, in series [1], the EC50 is > 30600 nM, the “RF RES056” value was > 206 and the “SI RES056” value is < 1. The CC50 at 5 days in [2] amounted to 30600 ± 1920 nM.
Regarding `Cc1cc(C#N)cc(C)c1Oc1nc(Nc2ccc(B3OC(C)(C)C(C)(C)O3)cc2)nc2ncsc12` [Compound 3d, 3,5-Dimethyl-4-((5-((4-(4,4,5,5-tetramethyl-1,3,2-dioxaborolan-2-yl)phenyl)amino)thiazolo [4,5-d]pyrimidin-7-yl)oxy)benzonitrile], the melting point was in the range of 117 to 119 °C. In the series on wild-type HIV-1 (IIIB), the EC50 was determined as 120 ± 56 nM, the “RF IIIB” value was 1.0 and the “SI IIIB” value was determined as 201. Also, in [1], the EC50 was > 24100 nM, the “RF RES056” value was > 201 and the “SI RES056” value is listed as < 1. For the same compound, the CC50 at 5 days in series [2] came to 24100 ± 3760 nM.
With `Cc1cc(C#N)cc(C)c1Oc1nc(Nc2ccc(C#N)cc2)nc(N)c1Br` [ETR, etravirine, reference compound], the 50% effective concentration (EC50) was determined as 4 ± 1 nM in the series on wild-type HIV-1 (IIIB); 16 ± 5 nM in [3]; 3 ± 8 nM in series [4]; 10 ± 5 nM in [5]; 26 ± 17 nM in series [6]; 61 ± 34 nM in [1]. Moreover, the EC50 is 8 ± 2 nM in series [7] and 19 ± 7 nM in series [8]. Besides, the CC50 at 5 days in [2] was > 4600 nM.
`Cc1cc(C#N)cc(C)c1Oc1nc(Nc2ccc(B3OC(C)(C)C(C)(C)O3)cc2)nc2c1SCCC2` [Compound 3j, 3,5-Dimethyl-4-((2-((4-(4,4,5,5-tetramethyl-1,3,2-dioxaborolan-2-yl)phenyl)amino) -7,8-dihydro-6H-thiopyrano [3,2-d]pyrimidin-4-yl)oxy)benzonitrile] returned a melting point of 201 to 203 °C. Moreover, in the series on wild-type HIV-1 (IIIB), the midpoint of the response, the EC50, lay at 141 ± 53 nM; the “RF IIIB” value was 1.0; the “SI IIIB” value came to 184. Besides, in series [1], the EC50 is > 25900 nM, the “RF RES056” value is > 184 and the “SI RES056” value is recorded as < 1. The compound further gave a CC50 at 5 days in series [2] of 25900 ± 1410 nM.
